Results taken from publication PMC9703800 (BMC Chemistry, 2022).
“Also recorded” adds a separate entry of the source.

Key:
[1] = target: butyrylcholinesterase (BChE) (Equus caballus, UniProt P81908); assay: biochemical; assay type: biochemical; details: for IC50: isolated compounds, mean ± SD, three experiments, read-out: BChEI (μM), IC50; for inhibition at 40 µg/mL: read-out: BChE inhibition (%)
[2] = target: T1, Acetylcholinesterase (AChE) (Electrophorus electricus, UniProt O42275); assay: biochemical; assay type: biochemical; details: for IC50: isolated compounds, mean ± SD, three experiments, read-out: AChEI (μM), IC50; for inhibition at 40 µg/mL: read-out: AChE inhibition (%)
T1 construct: Type V-S, lyophilized powder, from electric eel; purchased Sigma-Aldrich; host or cells: electric eel (natural source)

AChE = target: T2, AChE (Electrophorus electricus, UniProt O42275); assay: Kinetic study of AChE inhibition (Lineweaver-Burk); assay type: biochemical
T2 construct: Type V-S, lyophilized powder, from electric eel; purchased Sigma-Aldrich; host or cells: electric eel (natural source)
Method: (§1) Kinetic studies of compound 2 were performed for the inhibition of ChEs based on the Ellman's method, using various concentrations of the inhibitor [14]. […]

BChE = BChE (Equus caballus, UniProt P81908); assay: Kinetic study of BChE inhibition (Lineweaver-Burk); assay type: biochemical
Method: as §1

PC12 cells = assay: Neuroprotectivity against H2O2-induced cell death in PC12 cells (MTT); assay type: cell-based; details: 50 µM, positive control, H2O2 400 μM

T1 sequence (O42275 24-633): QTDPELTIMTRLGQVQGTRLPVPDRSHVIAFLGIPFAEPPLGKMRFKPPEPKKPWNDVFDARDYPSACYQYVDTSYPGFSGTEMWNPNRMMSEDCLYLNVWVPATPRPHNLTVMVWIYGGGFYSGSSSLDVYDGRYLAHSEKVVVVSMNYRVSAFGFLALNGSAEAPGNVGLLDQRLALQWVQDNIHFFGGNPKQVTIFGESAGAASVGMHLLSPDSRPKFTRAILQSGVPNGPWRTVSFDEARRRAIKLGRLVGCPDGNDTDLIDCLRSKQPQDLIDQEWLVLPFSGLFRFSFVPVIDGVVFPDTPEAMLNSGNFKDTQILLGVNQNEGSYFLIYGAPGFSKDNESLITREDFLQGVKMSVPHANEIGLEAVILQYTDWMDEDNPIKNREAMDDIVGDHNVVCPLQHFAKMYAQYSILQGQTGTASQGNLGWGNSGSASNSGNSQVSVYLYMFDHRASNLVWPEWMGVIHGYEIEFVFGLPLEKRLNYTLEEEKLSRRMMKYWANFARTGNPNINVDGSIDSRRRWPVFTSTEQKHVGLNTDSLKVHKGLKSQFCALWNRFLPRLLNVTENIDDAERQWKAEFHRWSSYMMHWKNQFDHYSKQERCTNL
T2 sequence (O42275 24-633): as above
BChE, sequence (P81908 whole entry): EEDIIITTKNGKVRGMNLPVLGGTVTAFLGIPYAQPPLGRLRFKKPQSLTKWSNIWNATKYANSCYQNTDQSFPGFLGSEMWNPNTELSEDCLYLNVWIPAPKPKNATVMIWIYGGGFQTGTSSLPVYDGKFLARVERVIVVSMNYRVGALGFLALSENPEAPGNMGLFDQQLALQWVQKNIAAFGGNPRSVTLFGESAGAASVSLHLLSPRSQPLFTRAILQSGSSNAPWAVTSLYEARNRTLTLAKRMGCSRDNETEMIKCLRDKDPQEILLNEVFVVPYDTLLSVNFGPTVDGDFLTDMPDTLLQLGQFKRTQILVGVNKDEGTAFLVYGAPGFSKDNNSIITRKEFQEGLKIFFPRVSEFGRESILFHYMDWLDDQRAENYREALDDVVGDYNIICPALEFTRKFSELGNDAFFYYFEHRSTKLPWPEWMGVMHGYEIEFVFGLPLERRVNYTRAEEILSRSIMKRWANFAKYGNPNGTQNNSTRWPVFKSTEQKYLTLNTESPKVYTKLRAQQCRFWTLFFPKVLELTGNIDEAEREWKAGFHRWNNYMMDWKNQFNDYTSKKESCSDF
butyrylcholinesterase (BChE), sequence (P81908 whole entry): as above

## O=C(CCCCCCCCc1ccccc1)c1c(O)cccc1O [Compound 1, 1-(2,6-Dihydroxyphenyl)-9-phenylnonan-1-one]
[1]
  BChE inhibitory activity (in words): potent inhibitors; also recorded: strong inhibitors
  IC50: 27.16 ± 0.06 µM
[2]
  AChE inhibitory activity (in words): potent inhibitors; also recorded: strong inhibitors
  IC50: 67.4 ± 1.52 µM

## O=C(CCCCCCCCc1ccc(O)c(O)c1)c1c(O)cccc1O [Compound 2, 1-(2,6-Dihydroxyphenyl)-9-(3,4-dihydroxyphenyl)nonan-1-one]
AChE; Lineweaver-Burk plot
  Mechanism of AChE inhibition: non-competitive inhibition; also recorded: non-competitively inhibited
AChE; Lineweaver-Burk, inhibitor 0, 28, 56, 112 μM
  Ki: 25 µM
BChE; Lineweaver-Burk plot
  Mechanism of BChE inhibition: non-competitive inhibition; also recorded: non-competitively inhibited
BChE; Lineweaver-Burk, inhibitor 0, 14, 28, 56 μM
  Ki: 22.4 µM
[1]
  BChE inhibitory activity (in words): potent inhibitors; also recorded: strong inhibitors
  IC50: 22.36 ± 0.03 µM
[2]
  AChE inhibitory activity (in words): potent inhibitors; also recorded: strong inhibitors
  IC50: 25 ± 0.95 µM

## COc1ccc(CC(C)C(C)Cc2ccc(O)c(O)c2)cc1OC (stereo not drawn) [Compound 3, 4-(4-(3,4-Dimethoxyphenyl)-2,3-dimethylbutyl)benzene-1,2-diol]
[1]
  inhibition at 40 µg/mL: 47.4%
[2]
  inhibition at 40 µg/mL: 0%

## COc1cc([C@H]2O[C@@H](c3ccc(O)c(OC)c3)[C@H](C)[C@@H]2C)ccc1O [Compound 4, 4,4'-((2R,3R,4S,5S)-3,4-Dimethyltetrahydrofuran-2,5-diyl)bis(2-methoxyphenol)]
[1]
  inhibition at 40 µg/mL: 45.8%
[2]
  inhibition at 40 µg/mL: 0%

## COc1cc(CC(C)C(C)Cc2ccc3c(c2)OCO3)ccc1O (stereo not drawn) [Compound 5, 4-(4-(Benzo[d][1,3]dioxol-5-yl)-2,3-dimethylbutyl)-2-methoxyphenol]
[1]
  inhibition at 40 µg/mL: 54.4%
[2]
  inhibition at 40 µg/mL: 12.8%

## COc1cc(C(OC)C(C)C(C)Cc2ccc3c(c2)OCO3)ccc1O (stereo not drawn) [Compound 6, 4-(4-(Benzo[d][1,3]dioxol-5-yl)-1-methoxy-2,3-dimethylbutyl)-2-methoxyphenol]
[1]
  inhibition at 40 µg/mL: 44%
[2]
  inhibition at 40 µg/mL: 0%

## O=c1c(O)c(-c2ccc(O)c(O)c2)oc2cc(O)cc(O)c12 [quercetin]
PC12 cells
  Neuroprotection (%) against H2O2-induced cell death: 72.79%
